Assay results taken from US7625894B2, “Pyrrolo[2,3-d]Pyrimidines as Protein Tyrosine Kinase Inhibitors” (Novartis AG, priority 2004, dated 2009).

Experiments:
VEGF receptor (KDR) = target: T1, VEGF receptor (KDR) (Homo sapiens, UniProt P35968); assay: Inhibition of VEGF-induced KDR-receptor autophosphorylation in transfected CHO cells; assay type: cell-based
T1 construct: expressed in transfected cells
Procedure: The inhibition of VEGF-induced KDR-receptor autophosphorylation can be confirmed with a further in vitro experiment in cells: transfected CHO cells, which permanently express human VEGF receptor (KDR), are seeded in complete culture medium with 10% fetal calf serum (FCS) in 6-well cell-culture plates and incubated at 37° C. under 5% CO2 until they show about 80% confluency. The compounds to be tested are then diluted in culture medium (without FCS, with 0.1% bovine serum albumin) and added to the cells. (Controls comprise medium without test compounds). After two hours of incubation at 37° C., recombinant VEGF is added; the final VEGF concentration is 20 ng/mL). After a further five minute incubation at 37° C., the cells are washed twice with ice-cold PBS (phosphate-buffered saline) and immediately lysed in 100 μL lysis buffer per well. The lysates are then centrifuged to remove the cell nuclei, and the protein concentrations of the supernatants are determined using a commercial protein assay (BIORAD). The lysates can then either be immediately used or, if necessary, stored at −20° C.
A sandwich ELISA is carried out to measure the KDR-receptor phosphorylation: a monoclonal antibody to KDR (for example Mab 1495.12.14) is immobilized on black ELISA plates (OptiPlate™ HTRF-96 from Packard). The plates are then washed and the remaining free protein-binding sites are saturated with 1% BSA in PBS. The cell lysates (20 μg protein per well) are then incubated in these plates overnight at 4° C. together with an anti-phosphotyrosine antibody coupled with alkaline phosphatase (PY20: AP from Transduction Laboratories). […] The luminescence is measured in a Packard Top Count Microplate Scintillation Counter (Top Count). The difference between the signal of the positive control (stimulated with VEGF) and that of the negative control (not stimulated with VEGF) corresponds to VEGF-induced KDR-receptor phosphorylation (=100%). The activity of the tested substances is calculated as % inhibition of VEGF-induced KDR-receptor phosphorylation, wherein the concentration of substance that induces half the maximum inhibition is defined as the IC50 (effective dose for 50% inhibition).

c-Abl = target: T2, c-Abl (Homo sapiens, UniProt P00519); assay: Test for activity against c-Abl protein tyrosine kinase (filter binding assay); assay type: biochemical
T2 construct: The His-tagged kinase domain of c-Abl is cloned and expressed in the baculovirus/Sf9 system; His; made in house; host or cells: baculovirus/Sf9
T2 sequence (P00519 242-493 limits assumed): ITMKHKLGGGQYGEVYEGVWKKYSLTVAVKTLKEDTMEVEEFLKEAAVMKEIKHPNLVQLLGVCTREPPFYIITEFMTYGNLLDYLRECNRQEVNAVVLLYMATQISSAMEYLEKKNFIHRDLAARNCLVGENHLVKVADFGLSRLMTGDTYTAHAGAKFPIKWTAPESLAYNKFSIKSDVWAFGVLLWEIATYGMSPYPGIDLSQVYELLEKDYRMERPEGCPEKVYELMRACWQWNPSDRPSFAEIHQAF
Procedure: Test for activity against c-Abl protein tyrosine kinase. The test is conducted as a filter binding assay as follows: The His-tagged kinase domain of c-Abl is cloned and expressed in the baculovirus/Sf9 system as described by Bhat et al., J. Biol. Chem. 272, 16170-5 (1997). A protein of 37 kD (c-Abl kinase) is purified by a two-step procedure over a cobalt metal chelate column followed by an anion exchange column with a yield of 1-2 mg/L of Sf9 cells. The purity of the c-Abl kinase is >90% as judged by SDS-PAGE after Coomassie blue staining. The assay contains: c-Abl kinase (50 ng), 20 mM Tris.HCl, pH 7.5, 10 mM MgCl2, 10 μM Na3VO4, 1 mM DTT and 0.06 μCi/assay [γ^33 P]-ATP (5 μM ATP) using 30 μg/mL poly-Ala,Glu,Lys,Tyr-6:2:5:1 (Poly-AEKY, Sigma P1152) in the presence of 1% DMSO, total volume of 30 μL. Reactions are terminated by adding 10 μL of 250 mM EDTA, and 30 μL of the reaction mixture is transferred onto Immobilon-PVDF membrane (Millipore, Bedford, Mass., USA) previously soaked for 5 min with methanol, rinsed with water, then soaked for 5 min with 0.5% H3PO4 and mounted on vacuum manifold with disconnected vacuum source. After spotting all samples, vacuum is connected and each well rinsed with 200 μL 0.5% H3PO4. Membranes are removed and washed on a shaker with 0.5% H3PO4 (4 times) and once with ethanol. Membranes are counted after drying at ambient temperature, mounting in Packard TopCount 96-well frame, and addition of 10 μL/well of Microscint™ (Packard).

EGF-R (HER-1) = EGF-R (HER-1) (Homo sapiens, UniProt P00533); assay: Inhibition of the tyrosine kinase activity of EGF-R (HER-1); assay type: biochemical; set-up: dose or concentration left out as unconfirmed

T1 sequence (P35968 20-1356): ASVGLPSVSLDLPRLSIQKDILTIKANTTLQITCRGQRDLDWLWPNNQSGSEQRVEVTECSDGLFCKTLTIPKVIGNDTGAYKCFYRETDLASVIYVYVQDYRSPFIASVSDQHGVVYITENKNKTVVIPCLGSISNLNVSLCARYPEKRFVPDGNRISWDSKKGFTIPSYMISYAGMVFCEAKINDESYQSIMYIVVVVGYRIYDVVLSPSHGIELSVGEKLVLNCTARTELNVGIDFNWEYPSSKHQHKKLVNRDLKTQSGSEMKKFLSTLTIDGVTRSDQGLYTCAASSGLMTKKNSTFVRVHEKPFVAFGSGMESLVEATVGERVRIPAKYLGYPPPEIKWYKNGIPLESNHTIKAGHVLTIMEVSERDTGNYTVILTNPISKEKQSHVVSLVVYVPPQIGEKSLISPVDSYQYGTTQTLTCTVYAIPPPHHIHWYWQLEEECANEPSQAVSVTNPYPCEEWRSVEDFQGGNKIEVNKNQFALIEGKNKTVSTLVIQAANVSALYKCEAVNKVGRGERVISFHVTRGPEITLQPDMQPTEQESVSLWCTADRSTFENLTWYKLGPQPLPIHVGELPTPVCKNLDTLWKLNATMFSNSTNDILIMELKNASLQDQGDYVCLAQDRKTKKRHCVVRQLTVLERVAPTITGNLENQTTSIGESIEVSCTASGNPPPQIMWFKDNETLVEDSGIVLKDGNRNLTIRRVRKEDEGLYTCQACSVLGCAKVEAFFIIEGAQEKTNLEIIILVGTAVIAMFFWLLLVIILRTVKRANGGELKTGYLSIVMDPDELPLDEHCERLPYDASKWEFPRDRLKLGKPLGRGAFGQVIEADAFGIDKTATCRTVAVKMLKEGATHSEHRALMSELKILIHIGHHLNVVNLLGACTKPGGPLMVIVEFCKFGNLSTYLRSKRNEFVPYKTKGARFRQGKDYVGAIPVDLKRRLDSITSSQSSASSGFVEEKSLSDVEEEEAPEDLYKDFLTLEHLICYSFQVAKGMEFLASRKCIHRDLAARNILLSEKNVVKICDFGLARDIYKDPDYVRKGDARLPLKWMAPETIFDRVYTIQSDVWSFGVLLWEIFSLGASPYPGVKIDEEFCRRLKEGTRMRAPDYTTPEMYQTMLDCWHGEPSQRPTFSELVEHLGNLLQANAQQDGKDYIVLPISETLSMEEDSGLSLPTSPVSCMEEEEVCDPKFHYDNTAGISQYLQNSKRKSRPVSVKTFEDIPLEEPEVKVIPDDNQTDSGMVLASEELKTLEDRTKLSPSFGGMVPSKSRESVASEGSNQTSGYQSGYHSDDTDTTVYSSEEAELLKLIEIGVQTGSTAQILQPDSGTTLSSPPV

Compound	KDR (% inh) (VEGF receptor (KDR)) [%]	IC50 (c-Abl) [µM]	HER-1/ %-inh. [%] (EGF-R (HER-1))
CN1CCN(C(=O)c2ccc(-c3cc4c(N(C)C)ncnc4[nH]3)cc2)CC1 [Example 3, [4-(4-Dimethylamino-7H-pyrrolo[2,3-d]pyrimidin-6-yl)-phenyl]-(4-methyl-piperazin-1-yl)-methanone]	85	0.019	59
CN1CCN(Cc2ccc(-c3cc4c(N(C)C)ncnc4[nH]3)cc2)CC1 [Example 4, Dimethyl-{6-[4-(4-methyl-piperazin-1-ylmethyl)-phenyl]-7H-pyrrolo[2,3-d]pyrimidin-4-yl}-amine]	86	0.032	64
CCN(CC)CCCNC(=O)c1ccc(-c2cc3c(N(C)C)ncnc3[nH]2)cc1 [Example 5, N-(3-Diethylamino-propyl)-4-(4-dimethylamino-7H-pyrrolo[2,3-d]pyrimidin-6-yl)-benzamide]	79	0.021	58
CN(C)c1ncnc2[nH]c(-c3ccc(C(=O)N4CCOCC4)cc3)cc12 [Example 6, [4-(4-Dimethylamino-7H-pyrrolo[2,3-d]pyrimidin-6-yl)-phenyl]-morpholin-4-yl-methanone]	83	0.0026	70
CN(C)c1ncnc2[nH]c(-c3ccc(C(=O)NCCCN4CCOCC4)cc3)cc12 [Example 7, 4-(4-Dimethylamino-7H-pyrrolo[2,3-d]pyrimidin-6-yl)-N-(3-morpholin-4-yl-propyl)-benzamide]	79	0.025	59
CNc1ncnc2[nH]c(-c3ccc(C(=O)N4CCN(C)CC4)cc3)cc12 [Example 12, [4-(4-Methylamino-7H-pyrrolo[2,3-d]pyrimidin-6-yl)-phenyl]-(4-methyl-piperazin-1-yl)-methanone]	67	0.004	85
CN1CCN(C(=O)c2ccc(-c3cc4c(NCCCO)ncnc4[nH]3)cc2)CC1 [Example 15, {4-[4-(3-Hydroxy-propylamino)-7H-pyrrolo[2,3-d]pyrimidin-6-yl]-phenyl}-(4-methyl-piperazin-1-yl)-methanone]	80	0.014	94
CNc1ncnc2[nH]c(-c3ccc(CN4CCN(C)CC4)cc3)cc12 [Example 16, Methyl-{6-[4-(4-methyl-piperazin-1-ylmethyl)-phenyl]-7H-pyrrolo[2,3-d]pyrimidin-4-yl}-amine]	85	0.011	94
CCCNc1ncnc2[nH]c(-c3ccc(C(=O)N4CCN(C)CC4)cc3)cc12 [Example 17, (4-Methyl-piperazin-1-yl)-[4-(4-propylamino-7H-pyrrolo[2,3-d]pyrimidin-6-yl)-phenyl]-methanone]	81	0.005	95
CCCNc1ncnc2[nH]c(-c3ccc(CN4CCN(C)CC4)cc3)cc12 [Example 18, {6-[4-(4-Methyl-piperazin-1-ylmethyl)-phenyl]-7H-pyrrolo[2,3-d]pyrimidin-4-yl}-propyl-amine]	83	0.006	98
CCCN(C)c1ncnc2[nH]c(-c3ccc(CN4CCN(C)CC4)cc3)cc12 [Example 19, Methyl-{6-[4-(4-methyl-piperazin-1-ylmethyl)-phenyl]-7H-pyrrolo[2,3-d]pyrimidin-4-yl}-propyl-amine]	85	0.011	97
CN(C)c1ncnc2[nH]c(-c3ccc(Cn4ccnc4)cc3)cc12 [Example 24, [6-(4-Imidazol-1-ylmethyl-phenyl)-7H-pyrrolo[2,3-d]pyrimidin-4-yl]-dimethylamine]	75	0.011	93
[4-(4-Methylamino-7H-pyrrolo[2,3-d]pyrimidin-6-yl)-phenyl]-morpholin-4-yl-methanone [Example 2]	77	0.035	78

Next, values leading:

KDR (% inh) (VEGF receptor (KDR)) [%]	IC50 (c-Abl) [µM]	HER-1/ %-inh. [%] (EGF-R (HER-1))	Compound
50	0.009	57	CN(C)c1ncnc2[nH]c(-c3ccc(Cc4ccc[nH]4)cc3)cc12 [Example 25, Dimethyl-{6-[4-(1H-pyrrol-2-ylmethyl)-phenyl]-7H-pyrrolo[2,3-d]pyrimidin-4-yl}-amine]
58	0.01	83	CN(C)c1ncnc2[nH]c(-c3ccc(Cn4cnnn4)cc3)cc12 [Example 27, Dimethyl-[6-(4-tetrazol-1-ylmethyl-phenyl)-7H-pyrrolo[2,3-d]pyrimidin-4-yl]-amine]
76		85	CN(C)c1ncnc2[nH]c(-c3ccc(CNCCCO)cc3)cc12 [Example 28, 3-[4-(4-Dimethylamino-7H-pyrrolo[2,3-d]pyrimidin-6-yl)-benzylamino]-propan-1-ol]
76		79	COCCN(C)Cc1ccc(-c2cc3c(N(C)C)ncnc3[nH]2)cc1 [Example 29, [6-(4-{[(2-Methoxy-ethyl)-methyl-amino]-methyl}-phenyl)-7H-pyrrolo[2,3-d]pyrimidin-4-yl]-dimethyl-amine]
84	0.13	98	CCC(O)(CC)c1ccc(-c2cc3c(NCCCn4cccc4)ncnc3[nH]2)cc1 [Example 33, 3-{4-[4-(3-Pyrrol-1-yl-propylamino)-7H-pyrrolo[2,3-d]pyrimidin-6-yl]-phenyl}-pentan-3-ol]
66	0.021	54	CN(C)c1ncnc2[nH]c(-c3ccc(C(C)(C)O)cc3)cc12 [Example 34, 2-[4-(4-Dimethylamino-7H-pyrrolo[2,3-d]pyrimidin-6-yl)-phenyl]-propan-2-ol]
76	0.01	90	CNc1ncnc2[nH]c(-c3ccc(C(C)(C)O)cc3)cc12 [Example 35, 2-[4-(4-Methylamino-7H-pyrrolo[2,3-d]pyrimidin-6-yl)-phenyl]-propan-2-ol]
